Test results from BindingDB's records for patent US12378224 (Dong-A Socio Holdings Co., 2025).

Key:
[1] = target: T1, Tyrosine-protein kinase Mer/Tyrosine-protein kinase receptor UFO/Tyrosine-protein kinase receptor TYRO3 (Human, UniProt P30530+Q06418+Q12866); test: HTRF Kinase Activity Biochemical Assay
T1 sequence (Q06418 whole entry): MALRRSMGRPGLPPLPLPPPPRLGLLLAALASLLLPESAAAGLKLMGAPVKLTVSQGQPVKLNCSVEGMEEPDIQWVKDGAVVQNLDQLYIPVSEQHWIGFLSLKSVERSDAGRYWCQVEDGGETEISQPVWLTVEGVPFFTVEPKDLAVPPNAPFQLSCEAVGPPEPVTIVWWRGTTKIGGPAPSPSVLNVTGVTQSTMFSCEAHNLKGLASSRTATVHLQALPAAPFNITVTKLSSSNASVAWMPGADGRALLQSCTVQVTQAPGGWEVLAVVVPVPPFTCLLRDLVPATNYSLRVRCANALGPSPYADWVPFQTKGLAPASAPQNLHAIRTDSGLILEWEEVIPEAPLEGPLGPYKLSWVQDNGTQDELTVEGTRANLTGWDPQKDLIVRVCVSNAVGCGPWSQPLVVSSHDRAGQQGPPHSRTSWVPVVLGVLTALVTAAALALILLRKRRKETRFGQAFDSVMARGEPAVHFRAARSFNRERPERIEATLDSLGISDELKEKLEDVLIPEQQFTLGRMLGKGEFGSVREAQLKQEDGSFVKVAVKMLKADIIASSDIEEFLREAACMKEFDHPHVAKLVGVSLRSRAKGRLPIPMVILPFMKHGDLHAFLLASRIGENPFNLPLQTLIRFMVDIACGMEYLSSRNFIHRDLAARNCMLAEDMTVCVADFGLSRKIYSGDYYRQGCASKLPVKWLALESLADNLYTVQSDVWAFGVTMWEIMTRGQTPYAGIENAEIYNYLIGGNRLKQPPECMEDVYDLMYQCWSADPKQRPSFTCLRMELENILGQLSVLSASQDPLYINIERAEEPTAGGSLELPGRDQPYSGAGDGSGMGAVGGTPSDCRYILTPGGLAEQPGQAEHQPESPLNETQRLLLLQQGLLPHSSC
T1 sequence (P30530 whole entry): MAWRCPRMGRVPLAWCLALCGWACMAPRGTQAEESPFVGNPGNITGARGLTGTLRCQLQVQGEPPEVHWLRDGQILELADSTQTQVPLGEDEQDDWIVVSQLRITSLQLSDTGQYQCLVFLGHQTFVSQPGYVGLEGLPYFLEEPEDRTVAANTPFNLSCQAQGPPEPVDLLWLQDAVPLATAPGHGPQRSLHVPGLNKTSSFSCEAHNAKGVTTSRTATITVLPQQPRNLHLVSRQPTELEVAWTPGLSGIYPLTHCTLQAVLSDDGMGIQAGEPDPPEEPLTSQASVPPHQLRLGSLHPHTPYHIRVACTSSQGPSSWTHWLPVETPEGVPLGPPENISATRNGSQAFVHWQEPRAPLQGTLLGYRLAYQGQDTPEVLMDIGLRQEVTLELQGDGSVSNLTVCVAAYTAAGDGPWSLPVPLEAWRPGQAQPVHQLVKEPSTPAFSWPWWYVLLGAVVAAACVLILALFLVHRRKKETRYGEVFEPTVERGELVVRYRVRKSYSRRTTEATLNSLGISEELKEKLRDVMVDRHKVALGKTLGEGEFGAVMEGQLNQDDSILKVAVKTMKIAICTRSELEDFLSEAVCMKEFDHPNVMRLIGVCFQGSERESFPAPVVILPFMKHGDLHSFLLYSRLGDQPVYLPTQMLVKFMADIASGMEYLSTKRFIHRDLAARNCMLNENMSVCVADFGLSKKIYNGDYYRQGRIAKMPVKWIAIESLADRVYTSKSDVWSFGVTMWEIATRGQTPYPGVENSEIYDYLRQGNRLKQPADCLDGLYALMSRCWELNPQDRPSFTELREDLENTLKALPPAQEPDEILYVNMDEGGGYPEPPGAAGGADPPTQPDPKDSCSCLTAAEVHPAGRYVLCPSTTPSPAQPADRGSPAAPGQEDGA
T1 sequence (Q12866 whole entry): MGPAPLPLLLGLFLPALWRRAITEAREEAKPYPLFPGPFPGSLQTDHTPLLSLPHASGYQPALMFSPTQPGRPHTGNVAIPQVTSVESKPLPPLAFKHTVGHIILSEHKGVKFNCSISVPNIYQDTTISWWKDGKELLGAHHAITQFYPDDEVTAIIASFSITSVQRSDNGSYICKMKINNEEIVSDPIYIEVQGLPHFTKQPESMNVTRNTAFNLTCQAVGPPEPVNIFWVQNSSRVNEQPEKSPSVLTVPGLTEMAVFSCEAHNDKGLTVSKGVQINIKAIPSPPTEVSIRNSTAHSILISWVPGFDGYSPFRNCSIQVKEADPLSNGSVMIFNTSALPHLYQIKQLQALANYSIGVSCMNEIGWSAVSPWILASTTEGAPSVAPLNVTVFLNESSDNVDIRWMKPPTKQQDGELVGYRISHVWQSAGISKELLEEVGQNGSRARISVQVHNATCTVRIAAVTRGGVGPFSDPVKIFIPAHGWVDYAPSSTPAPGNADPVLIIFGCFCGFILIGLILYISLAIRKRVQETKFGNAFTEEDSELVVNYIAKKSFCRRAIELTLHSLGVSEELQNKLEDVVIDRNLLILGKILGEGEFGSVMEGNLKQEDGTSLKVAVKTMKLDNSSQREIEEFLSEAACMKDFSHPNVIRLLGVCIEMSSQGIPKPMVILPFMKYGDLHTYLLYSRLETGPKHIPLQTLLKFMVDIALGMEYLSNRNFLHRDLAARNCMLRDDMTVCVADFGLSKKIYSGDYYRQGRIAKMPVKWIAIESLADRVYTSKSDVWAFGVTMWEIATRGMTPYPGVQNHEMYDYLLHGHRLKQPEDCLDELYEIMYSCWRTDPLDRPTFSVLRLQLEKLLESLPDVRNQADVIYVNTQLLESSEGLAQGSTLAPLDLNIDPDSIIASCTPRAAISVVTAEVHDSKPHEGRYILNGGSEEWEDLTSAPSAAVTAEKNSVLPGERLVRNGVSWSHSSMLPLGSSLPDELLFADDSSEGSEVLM
Procedure: Table 3: For the SAR (structure-activity relationship) and compound screening, HTRF (Homogeneous Time Resolved Fluorescence) kinase activity assay was employed for all MER, AXL and TYRO3 kinases using Cisbio HTRF KinEASE™-TK kit (Cisbio, USA). The kit includes biotin-labeled TK substrate, streptavidin-XL665, Eu3+-cryptate-labeled TK antibody and HTRF Detection buffer. There are two main steps in the kinase assay: kinase reaction and detection of phosphorylated substrate. The reaction was carried out in white low volume 384-well plate (Corning, USA) with 25 nL compound in dimethyl sulfoxide in each well. […] Then the reaction was stopped after 1 hour incubation at room temperature by adding 5 uL of HTRF Detection buffer which also contains 0.375 nM Eu3+-cryptate-labeled TK antibody and 0.062 uM streptavidin-XL665(SA-XL665) to allow for detection of the phosphorylated peptide product. After 1 h incubation at room temperature, the fluorescence intensity was measured with Envision™ plate reader (PerkinElmer, USA). Upon excitation at 340 nm by UV, the energy from Eu3+ donor of the antibody is transferred to the FRET acceptor XL665, and […] emits light at 665 nm. The level of kinase activity was quantified by the HTRF ratio that calculated from the intensity of emission at 665 nm and emission at 620 nm (fluorescence intensity @ 665 nm/fluorescence intensity @ 620 nm×10,000). The recombinant protein of human MER (528-end) was purchased from Carnabio, Japan. The recombinant human AXL (473-end) and TYRO3 (455-end) were purchased from SignalChem, Canada.

[2] = target: T2, Tyrosine-protein kinase Mer/Tyrosine-protein kinase UFO (Human, UniProt P30530+Q12866); test: TR-FRET Kinase Activity Biochemical Assay
T2 sequence (P30530 whole entry): T1 sequence (P30530 whole entry)
T2 sequence (Q12866 whole entry): T1 sequence (Q12866 whole entry)
Excerpt: Table 2: For the SAR (structure-activity relationship) and compound screening, LanthaScreen™ TR-FRET (Time-Resolved fluorescence energy transfer) assay was employed using the phospho-tyrosine specific Terbium (Tb)-labelded antibody with a fluorescein labeled poly-GT (glutamate-tyrosine) as a substrate. Upon excitation at 340 nm by UV, the energy from Tb donor of the antibody is transferred to the fluorescein of the phosphorylated poly GT substrate, and fluorescein emits light at 520 nm. The ratio between the intensity of primary emission at 495 nm and that of secondary emission at 520 nm was used to quantify the level of kinase activity. The recombinant proteins of human c-MER and AXL catalytic domains, Fluorescein-labeled poly-GT substrate, Tb-labeled anti-phosphorylated tyrosine antibodies, the kinase assay buffer, and 0.5M EDTA solution were purchased (Life technologies, USA). The TR-FRET assays were carried out in the white low volume 384-well plate (Corning, USA). […] 10 mM EDTA was added to terminate the enzyme reaction, and the level of phosphorylation of poly-GT substrate was determined following 30 min incubation with 2 nM Tb-labeled antibody. The fluorescence intensity was measured with Envision™ plate reader (PerkinElmer, USA).

Row | SMILES | IC50 [1] | IC50 [2]
1 | Cn1cc(-c2cnc(N)c(C(=O)N[C@@H]3CCN(C(=O)Nc4ccc(C#N)cc4)C3)c2)cn1 [US12378224, Example 7] | > 1000 nM | –
2 | Cn1cc(-c2cnc(N)c(C(=O)N[C@@H]3CCN(C(=O)c4ccc(-c5cccc(Cl)c5Cl)cc4)C3)c2)cn1 [US12378224, Example 369] | – | < 10 nM
3 | CN1CCN(Cc2ccc(-c3cnc(N)c(C(=O)N[C@@H]4CCN(C(=O)c5ccc(-c6ccccc6Cl)cc5)C4)c3)cc2)CC1 [US12378224, Example 572] | – | < 10 nM
4 | Nc1ncc(-c2ccc(S(=O)(=O)N3CCC3)cc2)cc1C(=O)N[C@@H]1CCN(C(=O)c2ccc(-c3ccccc3Cl)cc2)C1 [US12378224, Example 574] | > 1000 nM | –
5 | Nc1ncc(-c2ccnc(N3CCNCC3)c2)cc1C(=O)N[C@@H]1CCN(C(=O)c2ccc(-c3ccc(F)cc3Cl)cc2)C1 [US12378224, Example 581] | < 10 nM | –
6 | CN1CCN(c2ccc(-c3cnc(N)c(C(=O)N[C@@H]4CCN(C(=O)c5ccc(-c6ccc(F)cc6Cl)cc5)C4)c3)cc2)CC1 [US12378224, Example 585] | < 10 nM | –
7 | CN1CCC(NC(=O)c2ccc(-c3cnc(N)c(C(=O)N[C@@H]4CCN(C(=O)c5ccc(-c6ccccc6Cl)cc5)C4)c3)cc2)CC1 [US12378224, Example 591] | < 10 nM | –
8 | CC1CCC(NC(=O)c2ccc(-c3cnc(N)c(C(=O)N[C@@H]4CCN(C(=O)c5ccc(-c6ccccc6Cl)cc5)C4)c3)cc2)CC1 (some centres undefined) [US12378224, Example 592] | > 1000 nM | –
9 | CN1CCC(CNC(=O)c2ccc(-c3cnc(N)c(C(=O)N[C@@H]4CCN(C(=O)c5ccc(-c6ccccc6Cl)cc5)C4)c3)cc2)C1 (some centres undefined) [US12378224, Example 594] | – | < 10 nM
